Measurements: patent US20230398130A1, “METHODS AND COMPOSITIONS FOR DIFFERENTIATING STEM CELLS” (Massachusetts Institute of Technology, priority 2020, published 2023)

How the values were obtained:
ISC-enriched organoids [1] = experiment: Primary screen, 384-well 2.5-D organoid differentiation (ENR+CD, 6 days): basal lysozyme secretion (LYZ.NS); format: cell-based, murine; settings: primary screen; for Dose.FC.LYZ.NS: FC vs plate median; for Z.LYZ.NS: standard z score; for SSMD.LYZ.NS: strictly standardized mean difference
Source text: (§1) High-throughput screening.

ISC-enriched organoids [2] = experiment: Primary screen, 384-well 2.5-D organoid differentiation (ENR+CD, 6 days): carbachol-induced lysozyme secretion (LYZ.S); format: cell-based, murine; settings: primary screen; for Dose.FC.LYZ.S: FC vs plate median; for Z.LYZ.S: standard z score; for SSMD.LYZ.S: strictly standardized mean difference
Source text: as §1

ISC-enriched organoids [3] = experiment: Primary screen, 384-well 2.5-D organoid differentiation (ENR+CD, 6 days, Target Selective Inhibitor Library, vs whole-plate median): ATP (CellTiter-Glo 3D, CTG); settings: primary screen; for Dose.FC.CTG: FC vs plate median; for Z.CTG: standard z score; for SSMD.CTG: strictly standardized mean difference
[4] = 1st of the 4 dose lines of the treatment (dose not given)
[5] = 2nd of the 4 dose lines of the treatment (dose not given)
[6] = 3rd of the 4 dose lines of the treatment (dose not given)
[7] = 4th of the 4 dose lines of the treatment (dose not given)

SMILES	Dose.FC.LYZ.NS (ISC-enriched organoids [1]; Dose 0.08 uM) [log 2 fold change]	Z.LYZ.NS (ISC-enriched organoids [1]; Dose 0.08 uM)	Dose.FC.LYZ.NS (ISC-enriched organoids [1]; Dose 0.40 uM) [log 2 fold change]	Z.LYZ.NS (ISC-enriched organoids [1]; Dose 0.40 uM)	Dose.FC.LYZ.NS (ISC-enriched organoids [1]; Dose 2.00 uM) [log 2 fold change]	Z.LYZ.NS (ISC-enriched organoids [1]; Dose 2.00 uM)	Dose.FC.LYZ.NS (ISC-enriched organoids [1]; Dose 10.00 uM) [log 2 fold change]	Z.LYZ.NS (ISC-enriched organoids [1]; Dose 10.00 uM)	SSMD.LYZ.NS (ISC-enriched organoids [1]; [4])	SSMD.LYZ.NS (ISC-enriched organoids [1]; [5])	SSMD.LYZ.NS (ISC-enriched organoids [1]; [6])	SSMD.LYZ.NS (ISC-enriched organoids [1]; [7])	Dose.FC.LYZ.S (ISC-enriched organoids [2]; Dose 0.08 uM) [log 2 fold change]	Dose.FC.LYZ.S (ISC-enriched organoids [2]; Dose 0.40 uM) [log 2 fold change]	Dose.FC.LYZ.S (ISC-enriched organoids [2]; Dose 2.00 uM) [log 2 fold change]	Dose.FC.LYZ.S (ISC-enriched organoids [2]; Dose 10.00 uM) [log 2 fold change]	Z.LYZ.S (ISC-enriched organoids [2]; [4])	Z.LYZ.S (ISC-enriched organoids [2]; [5])	Z.LYZ.S (ISC-enriched organoids [2]; [6])	Z.LYZ.S (ISC-enriched organoids [2]; [7])	further results
C[C@H](NC(=O)[C@@H](O)c1cc(F)cc(F)c1)C(=O)N[C@@H]1C(=O)N(C)c2ccccc2-c2ccccc21 [LY411575]	0.040	0.347	−0.050	−0.434	−0.069	−0.598	−0.109	−0.949	0.217	−0.432	−0.593	−0.931	0.024	0.041	−0.091	−0.157	0.155	0.266	−0.590	−1.015	SSMD.LYZ.S (ISC-enriched organoids [2]; [4]): 0.094; SSMD.LYZ.S (ISC-enriched organoids [2]; [5]): 0.171; SSMD.LYZ.S (ISC-enriched organoids [2]; [6]): −0.596; SSMD.LYZ.S (ISC-enriched organoids [2]; [7]): −0.917; Dose.FC.CTG (ISC-enriched organoids [3]; Dose 0.08 uM): 0.035 log 2 fold change; Z.CTG (ISC-enriched organoids [3]; Dose 0.08 uM): 0.083; Dose.FC.CTG (ISC-enriched organoids [3]; Dose 0.40 uM): −0.172 log 2 fold change; Z.CTG (ISC-enriched organoids [3]; Dose 0.40 uM): −0.411; Dose.FC.CTG (ISC-enriched organoids [3]; Dose 2.00 uM): −0.172 log 2 fold change; Z.CTG (ISC-enriched organoids [3]; Dose 2.00 uM): −0.412; Dose.FC.CTG (ISC-enriched organoids [3]; Dose 10.00 uM): −0.259 log 2 fold change; Z.CTG (ISC-enriched organoids [3]; Dose 10.00 uM): −0.618; SSMD.CTG (ISC-enriched organoids [3]; [4]): 0.086; SSMD.CTG (ISC-enriched organoids [3]; [5]): −0.312; SSMD.CTG (ISC-enriched organoids [3]; [6]): −0.389; SSMD.CTG (ISC-enriched organoids [3]; [7]): −0.550
Cc1cccc(-c2nn3c(c2-c2ccnc4ccc(C(N)=O)cc24)CCC3)n1 [LY2157299]	0.227	1.973	0.140	1.221	0.092	0.799	0.162	1.408	0.656	0.737	0.827	1.243	0.187	0.199	0.113	0.223	1.209	1.287	0.731	1.441	SSMD.LYZ.S (ISC-enriched organoids [2]; [4]): 1.145; SSMD.LYZ.S (ISC-enriched organoids [2]; [5]): 1.157; SSMD.LYZ.S (ISC-enriched organoids [2]; [6]): 0.808; SSMD.LYZ.S (ISC-enriched organoids [2]; [7]): 1.219; Dose.FC.CTG (ISC-enriched organoids [3]; Dose 0.08 uM): 0.091 log 2 fold change; Z.CTG (ISC-enriched organoids [3]; Dose 0.08 uM): 0.218; Dose.FC.CTG (ISC-enriched organoids [3]; Dose 0.40 uM): 0.137 log 2 fold change; Z.CTG (ISC-enriched organoids [3]; Dose 0.40 uM): 0.328; Dose.FC.CTG (ISC-enriched organoids [3]; Dose 2.00 uM): 0.017 log 2 fold change; Z.CTG (ISC-enriched organoids [3]; Dose 2.00 uM): 0.041; Dose.FC.CTG (ISC-enriched organoids [3]; Dose 10.00 uM): 0.095 log 2 fold change; Z.CTG (ISC-enriched organoids [3]; Dose 10.00 uM): 0.226; SSMD.CTG (ISC-enriched organoids [3]; [4]): 0.343; SSMD.CTG (ISC-enriched organoids [3]; [5]): 0.369; SSMD.CTG (ISC-enriched organoids [3]; [6]): 0.048; SSMD.CTG (ISC-enriched organoids [3]; [7]): 0.314
CC(C)(C)Cn1c(N)nc2ccc(-c3[nH]c(C(C)(C)C)nc3-c3ccc(F)cc3)nc21 [LY2228820]	0.065	0.569	−0.100	−0.874	0.043	0.377	−0.126	−1.099	0.186	−0.798	0.123	−1.170	−0.017	−0.054	−0.130	−0.164	−0.107	−0.348	−0.844	−1.062	SSMD.LYZ.S (ISC-enriched organoids [2]; [4]): −0.087; SSMD.LYZ.S (ISC-enriched organoids [2]; [5]): −0.344; SSMD.LYZ.S (ISC-enriched organoids [2]; [6]): −0.692; SSMD.LYZ.S (ISC-enriched organoids [2]; [7]): −1.268; Dose.FC.CTG (ISC-enriched organoids [3]; Dose 0.08 uM): −0.299 log 2 fold change; Z.CTG (ISC-enriched organoids [3]; Dose 0.08 uM): −0.715; Dose.FC.CTG (ISC-enriched organoids [3]; Dose 0.40 uM): −0.340 log 2 fold change; Z.CTG (ISC-enriched organoids [3]; Dose 0.40 uM): −0.812; Dose.FC.CTG (ISC-enriched organoids [3]; Dose 2.00 uM): −0.339 log 2 fold change; Z.CTG (ISC-enriched organoids [3]; Dose 2.00 uM): −0.810; Dose.FC.CTG (ISC-enriched organoids [3]; Dose 10.00 uM): −0.332 log 2 fold change; Z.CTG (ISC-enriched organoids [3]; Dose 10.00 uM): −0.793; SSMD.CTG (ISC-enriched organoids [3]; [4]): −0.908; SSMD.CTG (ISC-enriched organoids [3]; [5]): −0.614; SSMD.CTG (ISC-enriched organoids [3]; [6]): −0.794; SSMD.CTG (ISC-enriched organoids [3]; [7]): −0.937
